# ChEMBL document CHEMBL4346657, “Anticancer activity, dual prooxidant/antioxidant effect and apoptosis induction profile of new bichalcophene-5-carboxamidines” (Eur J Med Chem, 2019)
# Active and inactive are the calls of the source. The calls are words filed in the database; no cut-off is given here.
# Assays:
# UO-31 = assay: Antiproliferative activity against human UO31 cells assessed as growth inhibition after 48 hrs by sulforhodamine B assay; type: functional; details: UO-31, 48 h
# NCI-H460 = assay: Antiproliferative activity against human NCI-H460 cells assessed as growth inhibition after 48 hrs by sulforhodamine B assay; type: functional; details: NCI-H460, 48 h
# Malme-3M = assay: Antiproliferative activity against human MALME-3M cells assessed as growth inhibition after 48 hrs by sulforhodamine B assay; type: functional
# TK-10 = assay: Antiproliferative activity against human TK10 cells assessed as growth inhibition after 48 hrs by sulforhodamine B assay; type: functional; details: TK-10, 48 h
# HCT-15 = assay: Antiproliferative activity against human HCT15 cells assessed as growth inhibition after 48 hrs by sulforhodamine B assay; type: functional; details: HCT-15, 48 h
# MCF7 = assay: Antiproliferative activity against human MCF7 cells assessed as growth inhibition after 48 hrs by sulforhodamine B assay; type: functional; details: MCF7, 48 h
# OVCAR-3 = assay: Antiproliferative activity against human OVCAR3 cells assessed as growth inhibition after 48 hrs by sulforhodamine B assay; type: functional; details: OVCAR-3, 48 h
# SF-539 = assay: Antiproliferative activity against human SF539 cells assessed as growth inhibition after 48 hrs by sulforhodamine B assay; type: functional; details: SF-539, 48 h
# MDA-MB-231 = assay: Antiproliferative activity against human MDA-MB-231/ATCC cells assessed as growth inhibition after 48 hrs by sulforhodamine B assay; type: functional; details: MDA-MB-231, 48 h
# HCT-116 [1] = assay: Induction of apoptosis in human HCT116 cells assessed as increase in caspase 3 mRNA expression at 100 nM after 6 hrs hrs by SYBR green dye-based qRT-PCR analysis relative to control; type: functional
# NCI-H23 = assay: Antiproliferative activity against human NCI-H23 cells assessed as growth inhibition after 48 hrs by sulforhodamine B assay; type: functional; details: NCI-H23, 48 h
# [2] = Haemolytic activity in human erythrocytes assessed as induction of hemolysis at 10 mM after 30 mins relative to H202; type: cell-based, Erythrocyte; details: read-out: Activity
# [3] = Antioxidant activity assessed as ABTS radical scavenging activity by spectrophotometric analysis relative to control; type: functional; parameters: concentration or dose not given beside the values; details: dose or concentration not given here
# HCT-116 [4] = assay: Induction of apoptosis in human HCT116 cells assessed as increase in p53 mRNA expression at 100 nM after 6 hrs hrs by SYBR green dye-based qRT-PCR analysis relative to control; type: functional
# SN12C = assay: Antiproliferative activity against human SN12C cells assessed as growth inhibition after 48 hrs by sulforhodamine B assay; type: functional
# CAKI-1 = assay: Antiproliferative activity against human CAKI-1 cells assessed as growth inhibition after 48 hrs by sulforhodamine B assay; type: functional; details: CAKI-1, 48 h
# COLO 205 = assay: Antiproliferative activity against human COLO205 cells assessed as growth inhibition after 48 hrs by sulforhodamine B assay; type: functional; details: COLO 205, 48 h
# EKVX = assay: Antiproliferative activity against human EKVX cells assessed as growth inhibition after 48 hrs by sulforhodamine B assay; type: functional
# PC-3 = assay: Antiproliferative activity against human PC3 cells assessed as growth inhibition after 48 hrs by sulforhodamine B assay; type: functional; details: PC-3, 48 h
# HOP-62 = assay: Antiproliferative activity against human HOP62 cells assessed as growth inhibition after 48 hrs by sulforhodamine B assay; type: functional; details: HOP-62, 48 h
# A549 = assay: Antiproliferative activity against human A549/ATCC cells assessed as growth inhibition after 48 hrs by sulforhodamine B assay; type: functional; details: A549, 48 h
# 786-0 = assay: Antiproliferative activity against human 786-0 cells assessed as growth inhibition after 48 hrs by sulforhodamine B assay; type: functional; details: 786-0, 48 h
# [5] = Haemolytic activity in human erythrocytes assessed as induction of hemolysis at 5 mM after 30 mins relative to H202; type: cell-based, Erythrocyte; details: read-out: Activity
# DU-145 = assay: Antiproliferative activity against human DU145 cells assessed as growth inhibition after 48 hrs by sulforhodamine B assay; type: functional; details: DU-145, 48 h
# RXF 393 = assay: Antiproliferative activity against human RXF393 cells assessed as growth inhibition after 48 hrs by sulforhodamine B assay; type: functional; details: RXF 393, 48 h
# OVCAR-4 = assay: Antiproliferative activity against human OVCAR4 cells assessed as growth inhibition after 48 hrs by sulforhodamine B assay; type: functional; details: OVCAR-4, 48 h
# OVCAR-8 = assay: Antiproliferative activity against human OVCAR8 cells assessed as growth inhibition after 48 hrs by sulforhodamine B assay; type: functional; details: OVCAR-8, 48 h
# [6] = test system: Panel NCI-60 (60 carcinoma cell lines); assay: Antiproliferative activity against human NCI60 cells assessed as growth inhibition after 48 hrs by sulforhodamine B assay; type: functional
# [7] = Pro-oxidant activity assessed as increase in bleomycin-Fe2+ induced calf thymus DNA damage at 2 mM after 1 hr by thiobarbituric acid based absorbance analysis
# OVCAR-5 = assay: Antiproliferative activity against human OVCAR5 cells assessed as growth inhibition after 48 hrs by sulforhodamine B assay; type: functional; details: OVCAR-5, 48 h
# MDA-MB-435 = assay: Antiproliferative activity against human MDA-MB-435 cells assessed as growth inhibition after 48 hrs by sulforhodamine B assay; type: functional; details: MDA-MB-435, 48 h
# [8] = Antioxidant activity assessed as DPPH radical scavenging activity incubated in dark for 30 mins by spectrophotometric method relative to control; type: functional; parameters: concentration or dose not given beside the values
# SK-OV-3 = assay: Antiproliferative activity against human SKOV3 cells assessed as growth inhibition after 48 hrs by sulforhodamine B assay; type: functional; details: SK-OV-3, 48 h
# [9] = Antioxidant activity assessed as hydroxyl radical scavenging activity after 1 hr by salicylic acid-based Fenton reaction assay; type: functional
# UACC-257 = assay: Antiproliferative activity against human UACC257 cells assessed as growth inhibition after 48 hrs by sulforhodamine B assay; type: functional; details: UACC-257, 48 h
# LOX IMVI = assay: Antiproliferative activity against human LOXIMVI cells assessed as growth inhibition after 48 hrs by sulforhodamine B assay; type: functional
# MDA-MB-468 = assay: Antiproliferative activity against human MDA-MB-468 cells assessed as growth inhibition after 48 hrs by sulforhodamine B assay; type: functional; details: MDA-MB-468, 48 h
# BT-549 = assay: Antiproliferative activity against human BT549 cells assessed as growth inhibition after 48 hrs by sulforhodamine B assay; type: functional; details: BT-549, 48 h
# HCT-116 [10] = assay: […] in CDK1 mRNA expression in human HCT116 cells at 100 nM after 6 hrs hrs by SYBR green dye-based qRT-PCR analysis relative to control; type: functional
# SNB-75 = assay: Antiproliferative activity against human SNB75 cells assessed as growth inhibition after 48 hrs by sulforhodamine B assay; type: functional; details: SNB-75, 48 h
# SF-268 = assay: Antiproliferative activity against human SF268 cells assessed as growth inhibition after 48 hrs by sulforhodamine B assay; type: functional; details: SF-268, 48 h
# MOLT-4 = assay: Antiproliferative activity against human MOLT4 cells assessed as growth inhibition after 48 hrs by sulforhodamine B assay; type: functional; details: MOLT-4, 48 h
compound,measurement,setting,value
N=C(N)c1ccc(-c2ccc(-c3ccc(Cl)cc3)s2)s1,GI50,UO-31,1.75 µM
same,GI50,NCI-H460,1.51 µM
same,GI50,Malme-3M,1.81 µM
same,GI50,TK-10,1.96 µM
same,GI50,HCT-15,1.2 µM
same,GI50,MCF7,1.29 µM
same,GI50,OVCAR-3,1.74 µM
same,GI50,SF-539,1.63 µM
same,GI50,MDA-MB-231,1.8 µM
same,fold change (FC),HCT-116 [1],3
same,GI50,NCI-H23,1.62 µM
same,"hemolysis at 0.5 h, 10000 µM",[2],81.7%
same,inhibition,[3],81.2%
same,fold change (FC),HCT-116 [4],0.89
same,GI50,SN12C,1.91 µM
same,GI50,CAKI-1,1.61 µM
same,GI50,COLO 205,1.44 µM
same,GI50,EKVX,1.64 µM
same,GI50,PC-3,1.86 µM
same,GI50,HOP-62,1.75 µM
same,GI50,A549,2.11 µM
same,GI50,786-0,1.79 µM
same,"hemolysis at 0.5 h, 5000 µM",[5],49%
same,GI50,DU-145,1.62 µM
same,GI50,RXF 393,1.71 µM
same,GI50,OVCAR-4,1.67 µM
same,GI50,OVCAR-8,2.48 µM
same,GI50,[6],1.73 µM
same,LC50,[6],29.5 µM
same,TGI,[6],4.07 µM
same,Activity,[7],Active
same,GI50,OVCAR-5,1.58 µM
same,GI50,MDA-MB-435,1.64 µM
same,inhibition,[8],72.9%
same,GI50,SK-OV-3,1.7 µM
same,Activity,[9],Active
same,GI50,UACC-257,2.78 µM
same,GI50,LOX IMVI,1.31 µM
same,GI50,MDA-MB-468,1.98 µM
same,GI50,BT-549,2.11 µM
same,fold change (FC),HCT-116 [10],1.08
same,GI50,SNB-75,1.49 µM
same,GI50,SF-268,1.77 µM
same,GI50,MOLT-4,1.78 µM
N=C(N)c1ccc(-c2ccc(-c3cncc4ccccc34)s2)s1,GI50,UO-31,1.39 µM
same,GI50,NCI-H460,0.88 µM
same,GI50,Malme-3M,1.61 µM
same,GI50,TK-10,1.84 µM
same,GI50,HCT-15,0.98 µM
same,GI50,MCF7,0.28 µM
same,GI50,OVCAR-3,1.65 µM
same,GI50,SF-539,1.73 µM
same,GI50,MDA-MB-231,1.35 µM
same,fold change (FC),HCT-116 [1],3.03
same,GI50,NCI-H23,1.76 µM
same,"hemolysis at 0.5 h, 10000 µM",[2],12.3%
same,inhibition,[3],69.9%
same,fold change (FC),HCT-116 [4],4.67
same,GI50,SN12C,1.8 µM
same,GI50,CAKI-1,1.6 µM
same,GI50,COLO 205,0.75 µM
same,GI50,EKVX,1.33 µM
same,GI50,PC-3,1.56 µM
same,GI50,HOP-62,1.7 µM
same,GI50,A549,1.62 µM
same,GI50,786-0,1.59 µM
same,"hemolysis at 0.5 h, 5000 µM",[5],4%
same,GI50,DU-145,1.55 µM
same,GI50,RXF 393,1.6 µM
same,GI50,OVCAR-4,0.3 µM
same,GI50,OVCAR-8,1.83 µM
same,GI50,[6],1.34 µM
same,LC50,[6],77.6 µM
same,TGI,[6],3.23 µM
same,Activity,[7],Active
same,GI50,OVCAR-5,1.71 µM
same,GI50,MDA-MB-435,2.03 µM
same,inhibition,[8],52.5%
same,GI50,SK-OV-3,1.58 µM
same,Activity,[9],Active
same,GI50,UACC-257,2.47 µM
same,GI50,LOX IMVI,1.11 µM
same,GI50,MDA-MB-468,1.27 µM
same,GI50,BT-549,1.51 µM
same,fold change (FC),HCT-116 [10],0.16
same,GI50,SNB-75,1.93 µM
same,GI50,SF-268,1.63 µM
same,GI50,MOLT-4,1.17 µM
COc1cc(-c2ccc(-c3ccc(C(=N)N)s3)s2)cc(OC)c1OC,GI50,UO-31,1.74 µM
same,GI50,NCI-H460,1.99 µM
same,GI50,Malme-3M,1.74 µM
same,GI50,TK-10,2.7 µM
same,GI50,HCT-15,1.91 µM
same,GI50,MCF7,1.66 µM
same,GI50,OVCAR-3,2.22 µM
same,GI50,SF-539,1.58 µM
same,GI50,MDA-MB-231,1.88 µM
same,fold change (FC),HCT-116 [1],2.67
same,GI50,NCI-H23,2.61 µM
same,"hemolysis at 0.5 h, 10000 µM",[2],79.7%
same,inhibition,[3],75.4%
same,fold change (FC),HCT-116 [4],1.01
same,GI50,SN12C,1.61 µM
same,GI50,CAKI-1,1.7 µM
same,GI50,COLO 205,2.13 µM
same,GI50,EKVX,1.92 µM
same,GI50,PC-3,1.77 µM
same,GI50,HOP-62,1.97 µM
same,GI50,A549,2.14 µM
same,GI50,786-0,1.73 µM
same,"hemolysis at 0.5 h, 5000 µM",[5],38.7%
same,GI50,DU-145,2.32 µM
same,GI50,RXF 393,1.66 µM
same,GI50,OVCAR-4,1.82 µM
same,GI50,OVCAR-8,2.62 µM
same,GI50,[6],1.91 µM
same,LC50,[6],20.9 µM
same,TGI,[6],4.16 µM
same,Activity,[7],Active
same,GI50,OVCAR-5,1.47 µM
same,GI50,MDA-MB-435,1.64 µM
same,inhibition,[8],64.1%
same,GI50,SK-OV-3,5.15 µM
same,Activity,[9],Active
same,GI50,UACC-257,2.22 µM
same,GI50,LOX IMVI,1.61 µM
same,GI50,MDA-MB-468,1.82 µM
same,GI50,BT-549,1.77 µM
same,fold change (FC),HCT-116 [10],0.81
same,GI50,SNB-75,1.5 µM
same,GI50,SF-268,1.74 µM
same,GI50,MOLT-4,2.4 µM
